45 molecules from patent publication US7964531B2, “3-phenoxy-4-pyridazinol derivatives and herbicidal composition containing the same” (Mitsui Chemicals Agro, Inc., priority 2001, dated 2011) can be followed below.

As a reminder, the melting point is the temperature, or range, at which the solid turns liquid.

Molecule `Cc1ccc(S(=O)(=O)Oc2cc(Cl)nnc2Oc2cccc3ccccc23)cc1` [Compound No. 2240, 6-Chloro-3-(1-naphthyloxy)-4-pyridazinyl 4-methylbenzenesulfonate] had a melting point of 92 to 94 °C. Regarding `Cc1ccc(S(=O)(=O)Oc2cc(Cl)nnc2Oc2ccc(C(C)(C)C)cc2Br)cc1` [Compound No. 2245, 3-(2-Bromo-4-tert-butylphenoxy)-6-chloro-4-pyridazinyl 4-methylbenzenesulfonate], the melting point fell in the range of 110 to 112 °C. For `Cc1ccc(S(=O)(=O)Oc2cc(Cl)nnc2Oc2ccc(Cl)cc2C)cc1` [Compound No. 2246, 6-Chloro-3-(4-chloro-2-methylphenoxy)-4-pyridazinyl 4-methylbenzenesulfonate] the value was 115 to 116 °C. `Cc1ccc(S(=O)(=O)Oc2cc(Cl)nnc2Oc2ccc(C)cc2C)cc1` [Compound No. 2247, 6-Chloro-3-(2,4-dimethylphenoxy)-4-pyridazinyl 4-methylbenzenesulfonate] showed a melting point of 80 to 81 °C. Regarding `Cc1ccc(S(=O)(=O)Oc2cc(Cl)nnc2Oc2ccc(Br)cc2C(C)C)cc1` [Compound No. 2248, 3-(4-Bromo-2-isopropylphenoxy)-6-chloro-4-pyridazinyl 4-methylbenzenesulfonate], the melting point is 119 to 122 °C.

`Cc1ccc(S(=O)(=O)Oc2cc(Cl)nnc2Oc2cc(C)ccc2C(C)C)cc1` [Compound No. 2249, 6-Chloro-3-(2-isopropyl-5-methylphenoxy)-4-pyridazinyl 4-methylbenzenesulfonate]: the melting point lay in the range of 90 to 92 °C. Take `Cc1ccc(S(=O)(=O)Oc2cc(Cl)nnc2Oc2c(C)cccc2C)cc1` [Compound No. 2263, 6-Chloro-3-(2,6-dimethylphenoxy)-4-pyridazinyl 4-methylbenzenesulfonate]: the melting point was in the range of 89 to 90 °C. The result for `Cc1ccc(S(=O)(=O)Oc2cc(Cl)nnc2Oc2c(C)cccc2C2CC2)cc1` [Compound No. 2265, 6-Chloro-3-(2-cyclopropyl-6-methylphenoxy)-4-pyridazinyl 4-methylbenzenesulfonate] reads 85 to 87 °C; that for `Cc1ccccc1Oc1nnc(Cl)cc1OS(=O)(=O)c1ccc([N+](=O)[O-])cc1` [Compound No. 2287, 6-Chloro-3-(2-methylphenoxy)-4-pyridazinyl 4-nitrobenzenesulfonate], 166 to 169 °C. For `COCc1c(Cl)nnc(Oc2ccccc2C)c1O` [Compound No. 2378, 6-Chloro-5-(methoxymethyl)-3-(2-methylphenoxy)-4-pyridazinol] the value was 123 to 126 °C; for `Cc1ccccc1Oc1nnc(Cl)c(Oc2ccccc2C)c1O` [Compound No. 2395, 6-Chloro-3,5-bis(2-methylphenoxy)-4-pyridazinol], 110 to 115 °C; for `Cc1ccccc1Oc1nnc(Br)cc1O` [Compound No. 2411, 6-Bromo-3-(2-methylphenoxy)-4-pyridazinol], 197 to 198 °C. For `Cc1cc(O)c(Oc2ccccc2C(C)C)nn1` [Compound No. 2418, 3-(2-Isopropylphenoxy)-6-methyl-4-pyridazinol] the value was 259 to 260 °C. For `Cc1ccccc1Oc1nnc(C2CC2)cc1O` [Compound No. 2423, 6-Cyclopropyl-3-(2-methylphenoxy)-4-pyridazinol], the melting point fell in the range of 214 to 215 °C. For `C=Cc1cc(O)c(Oc2ccccc2C)nn1` [Compound No. 2436, 3-(2-Methylphenoxy)-6-vinyl-4-pyridazinol] the value was 195 to 197 °C; for `CC=Cc1cc(O)c(Oc2ccccc2C)nn1` [Compound No. 2442, 3-(2-Methylphenoxy)-6-(1-propenyl)-4-pyridazinol], 208 to 210 °C. For `CC(=O)c1cc(O)c(Oc2ccccc2C)nn1` [Compound No. 2455, 1-[5-Hydroxy-6-(2-methylphenoxy)-3-pyridazinyl]ethanone] the value was 182 to 185 °C; for `Cc1ccccc1Oc1nnc(-c2ccccc2)cc1O` [Compound No. 2464, 3-(2-Methylphenoxy)-6-phenyl-4-pyridazinol], 236 to 237 °C; for `Cc1ccccc1Oc1nnc(-c2cccs2)cc1O` [Compound No. 2478, 3-(2-Methylphenoxy)-6-(2-thienyl)-4-pyridazinol], 86 to 87 °C.

Molecule `Cc1ccccc1Oc1cc(O)c(Oc2ccccc2C)nn1` [Compound No. 2492, 3,6-Bis(2-methylphenoxy)-4-pyridazinol] had a melting point of 247 to 250 °C. The result for `Oc1cc(Cl)nnc1Oc1ccccc1C1CC1(F)Cl` (stereo not drawn) [Compound No. 2519, 6-Chloro-3-[2-(2-chloro-2-fluorocyclopropyl)phenoxy]-4-pyridazinol] reads 175 to 177 °C. `CC(C)=Cc1ccccc1Oc1nnc(Cl)cc1O` [Compound No. 2540, 6-Chloro-3-[2-(2-methyl-1-propenyl)phenoxy]-4-pyridazinol] displayed a melting point of 149 to 152 °C. The result for `Oc1cccc(Oc2nnc(Cl)cc2O)c1` [Compound No. 2544, 6-Chloro-3-(3-hydroxyphenoxy)-4-pyridazinol] reads 248 to 251 °C; that for `Oc1cc(Cl)nnc1Oc1cccc(OCc2ccccc2)c1` [Compound No. 2547, 3-[3-(Benzyloxy)phenoxy]-6-chloro-4-pyridazinol], 184 to 185 °C. In the case of `Oc1cc(Cl)nnc1Oc1ccc(OCc2ccccc2)cc1` [Compound No. 2548, 3-[4-(Benzyloxy)phenoxy]-6-chloro-4-pyridazinol], the melting point fell in the range of 170 to 180 °C. The result for `COc1cccc(Oc2nnc(Cl)cc2O)c1I` [Compound No. 2551, 6-Chloro-3-(2-iodo-3-methoxyphenoxy)-4-pyridazinol] reads 231 to 234 °C; that for `CC1(C)Cc2c(Oc3nnc(Cl)cc3O)cccc21` [Compound No. 2556, 6-Chloro-3-[(7,7-dimethylbicyclo[4.2.0]octa-1,3,5-trien-2-yl)oxy]-4-pyridazinol], 197 to 199 °C. In the case of `Cn1ccc2c(Oc3nnc(Cl)cc3O)cccc21` [Compound No. 2565, 6-Chloro-3-[(1-methyl-1H-indol-4-yl)oxy]-4-pyridazinol], the melting point was 203 to 206 °C.

In turn, `Cn1ccc2cccc(Oc3nnc(Cl)cc3O)c21` [Compound No. 2568, 6-Chloro-3-[(1-methyl-1H-indol-7-yl)oxy]-4-pyridazinol] came in with a melting point of 219 to 221 °C. `CC(=O)c1ccc(Oc2nnc(Cl)cc2O)c(C)c1` [Compound No. 2570, 1-{4-[(6-Chloro-4-hydroxy-3-pyridazinyl)oxy]-3-methylphenyl}ethanone] gave a melting point of 182 to 184 °C. For `CON=C(C)c1ccc(Oc2nnc(Cl)cc2O)c(C)c1` [Compound No. 2571, 1-{4-[(6-Chloro-4-hydroxy-3-pyridazinyl)oxy]-3-methylphenyl}ethanone O-methyloxime] the value was 189 to 192 °C.

In turn, `COC(=O)c1ccc(OC)c(Oc2nnc(Cl)cc2O)c1` [Compound No. 2574, Methyl 3-[(6-chloro-4-hydroxy-3-pyridazinyl)oxy]-4-methoxybenzoate] displayed a melting point of 115 to 123 °C. The result for `C=C(C)c1cccc(C)c1Oc1nnc(Cl)cc1O` [Compound No. 2577, 6-Chloro-3-(2-isopropenyl-6-methylphenoxy)-4-pyridazinol] reads 183 to 186 °C; that for `Cc1c(Br)ccc(C2CC2)c1Oc1nnc(Cl)cc1O` [Compound No. 2587, 3-(3-Bromo-6-cyclopropyl-2-methylphenoxy)-6-chloro-4-pyridazinol], 234 to 235 °C; that for `Cc1c([N+](=O)[O-])ccc(C2CC2)c1Oc1nnc(Cl)cc1O` [Compound No. 2589, 6-Chloro-3-(6-cyclopropyl-2-methyl-3-nitrophenoxy)-4-pyridazinol], 140 to 143 °C.

The molecule `Cc1ccc2c(c1Oc1nnc(Cl)cc1O)COC2` [Compound No. 2592, 6-Chloro-3-[(5-methyl-1,3-dihydro-2-benzofuran-4-yl)oxy]-4-pyridazinol] yielded a melting point of 188 to 200 °C. On to `CCSc1cc(Oc2nnc(Cl)cc2O)c(Br)cc1Br` [Compound No. 2596, 6-Chloro-3-[2,4-dibromo-5-(ethylsulfanyl)phenoxy]-4-pyridazinol], for which the melting point lay within 225 to 228 °C. The result for `Cc1cc(C)c(F)c(Oc2nnc(Cl)cc2O)c1C` [Compound No. 2597, 6-Chloro-3-(2-fluoro-3,5,6-trimethylphenoxy)-4-pyridazinol] reads 258 to 260 °C; that for `Cc1cc(C)c(Cl)c(Oc2nnc(Cl)cc2O)c1C` [Compound No. 2599, 6-Chloro-3-(2-chloro-3,5,6-trimethylphenoxy)-4-pyridazinol], 298 to 300 °C; that for `CCc1c(C)cc(C)c(C)c1Oc1nnc(Cl)cc1O` [Compound No. 2601, 6-Chloro-3-(2-ethyl-3,5,6-trimethylphenoxy)-4-pyridazinol], 188 to 195 °C.

`Cc1cc(C)c([N+](=O)[O-])c(Oc2nnc(Cl)cc2O)c1C` [Compound No. 2608, 6-Chloro-3-(2,3,5-trimethyl-6-nitrophenoxy)-4-pyridazinol] returned a melting point of 172 to 174 °C.

Turning to `Cc1c(C)c(C)c(Oc2nnc(Cl)cc2O)c(C)c1C` [Compound No. 2614, 6-Chloro-3-(2,3,4,5,6-pentamethylphenoxy)-4-pyridazinol], the melting point is 238 to 240 °C (dec.).

In the case of `Cc1cccc(C2CC2)c1Oc1nnc(Cl)cc1OC(=O)CC(C)(C)C` [Compound No. 2662, 6-Chloro-3-(2-cyclopropyl-6-methylphenoxy)-4-pyridazinyl 3,3-dimethylbutanoate], the melting point lay in the range of 91 to 92 °C. The result for `C=C(C)C(=O)Oc1cc(Cl)nnc1Oc1c(C)cccc1C1CC1` [Compound No. 2677, 6-Chloro-3-(2-cyclopropyl-6-methylphenoxy)-4-pyridazinyl 2-methylacrylate] reads 98 to 100 °C; that for `Cc1cccc(C2CC2)c1Oc1nnc(Cl)cc1OC(=O)C(C)(C)Br` [Compound No. 2697, 6-Chloro-3-(2-cyclopropyl-6-methylphenoxy)-4-pyridazinyl 2-bromo-2-methylpropanoate], 69 to 71 °C.
